In US10881108B2, “Method of protecting field corn from damage by a plant pathogen” (SUMITOMO CHEMICAL COMPANY, LIMITED, priority 2019, dated 2021):

What was measured:
Type in all cases: in vivo
Cercospora zeae-maydis [1] = experiment: Seed coating, then grey leaf spot inoculation; fresh weight of aerial part; details: seed coating 0.2 mg per seed, 20 g per hectare, 14 days from inoculation
Procedure: Seeds of field corn are coated with a mefentrifluconazole aqueous suspension concentrate so that the amount of mefentrifluconazole to be applied to each seed may be 0.2 mg. Then, the field corn seeds are sown to a pot filled with a soil at a sowing rate of 100,000 seeds per hectare. That is, the application rate of mefentrifluconazole is 20 g per hectare. Then, the field corn is incubated in a greenhouse for 10 days, followed by inoculating a pathogen of grey leaf spot (Cercospora zeae-maydis) to the foliage of field corn. The field corn is incubated in a greenhouse for 14 days from the inoculation, and then the fresh weight of the aerial part of the field corn is measured. It is confirmed that the fresh weight is equivalent to that of the control where field corn is not treated with mefentrifluconazole and the pathogen is not inoculated (no-treatment-no-inoculation control) and is bigger than that of the control where field corn is not treated with mefentrifluconazole and the pathogen is inoculated (no-treatment-inoculation control). The same procedure of the example 2 is repeated except for replacing field corn with popcorn, sweet corn, or waxy corn. It is confirmed that the fresh weight of popcorn, sweet corn, or waxy corn is smaller than that of the corresponding no-treatment-no-inoculation control and is equivalent to that of the corresponding no-treatment-inoculation control.

Cercospora zeae-maydis [2] = experiment: Dripping onto first leaf, then grey leaf spot inoculation; plant length of aerial part; details: 100 g per hectare; for Plant length in treatment plot (A) / Treatment/control ratio (100 × A/B): dripped onto first leaf 0.1 mg per plant, 7 days from inoculation; for protection from the damage by the pathogen: dripped onto first leaf
Procedure: Four varieties of field corn were sown to a pot filled with a soil at a sowing rate of 1,000,000 seeds per hectare. Then each field corn was incubated for 7 days in a greenhouse. A mefentrifluconazole dilution liquid (prepared by diluting an aqueous suspension concentrate of mefentrifluconazole with water) is dripped onto the first leaf of field corn plants so that the amount of mefentrifluconazole to be applied to each plant might be 0.1 mg. That is, the application rate of mefentrifluconazole was 100 g per hectare. Five days after the application, a pathogen of grey leaf spot (Cercospora zeae-maydis) was inoculated to the foliage of each field corn. Each field corn was incubated in a greenhouse for 7 days from the inoculation, and then plant length of the aerial part of each field corn was measured. The plant length is referred to as ‘the plant length in treatment plot’. As a control experiment, the same procedure was repeated except that dripping treatment with mefentrifluconazole dilution liquid and the inoculation of the pathogen were not conducted. The plant length obtained in the control experiment is referred to as ‘the plant length in control plot’. The same procedure of the example 5 was repeated except for replacing four varieties of field corn with two varieties of popcorn, a variety of sweet corn, and two varieties of waxy corn.

Cercospora zeae-maydis [3] = experiment: Foliar spray on potted corn, then grey leaf spot inoculation; fresh weight of aerial part; details: foliar spray 500 g per hectare, 14 days from inoculation
Procedure: Field corn is sown to a pot filled with a soil. It is incubated for 7 days in a greenhouse. Mefentrifluconazole spray liquid (prepared by diluting an aqueous suspension concentrate of mefentrifluconazole with water) is uniformly sprayed onto the foliage of field corn at the amount of 200 L per hectare so that the application rate of mefentrifluconazole may be 500 g per hectare. On the next day of the spraying, a pathogen of grey leaf spot (Cercospora zeae-maydis) is inoculated to the foliage of field corn. The field corn is incubated in a greenhouse for 14 days from the inoculation, and then fresh weight of the aerial part of the field corn is measured. It is confirmed that the fresh weight is equivalent to that of the control where field corn is not treated with mefentrifluconazole and the pathogen is not inoculated (no-treatment-no-inoculation control) and is bigger than that of the control where field corn is not treated with mefentrifluconazole and the pathogen is inoculated (no-treatment-inoculation control). The same procedure of the example 1 is repeated except for replacing field corn with popcorn, sweet corn, or waxy corn. It is confirmed that the fresh weight of popcorn, sweet corn, or waxy corn is smaller than that of the corresponding no-treatment-no-inoculation control and is equivalent to that of the corresponding no-treatment-inoculation control.

Cercospora zeae-maydis [4] = experiment: Seed dipping, then grey leaf spot inoculation; plant length of aerial part; details: seed dipping 0.2 mg per seed, 200 g per hectare; for Plant length in treatment plot (A) / Treatment/control ratio (100 × A/B): 7 days from inoculation
Procedure: Seeds of three varieties of field corn were separately dipped in a mefentrifluconazole dilution liquid (prepared by diluting an aqueous suspension concentrate of mefentrifluconazole with water) so that the amount of mefentrifluconazole to be applied to each seed might be 0.2 mg. Then, the field corn seeds were sown to a pot filled with a soil at a sowing rate of 1,000,000 seeds per hectare. That is, the application rate of mefentrifluconazole was 200 g per hectare. Each field corn was incubated in a greenhouse for 12 days from the sowing, and then a pathogen of grey leaf spot (Cercospora zeae-maydis) was inoculated to the foliage of each field corn. Each field corn was incubated in a greenhouse for 7 days from the inoculation, and then plant length of the aerial part of each field corn was measured. The plant length is referred to as ‘the plant length in treatment plot’. As a control experiment, the same procedure was repeated except that dipping treatment with mefentrifluconazole dilution liquid and the inoculation of the pathogen were not conducted. The plant length obtained in the control experiment is referred to as ‘the plant length in control plot’. The same procedure of the example 4 was repeated except for replacing three varieties of field corn with a variety of popcorn, and two varieties of waxy corn.

Cercospora zeae-maydis [5] = experiment: Dripping onto primary leaf, then grey leaf spot inoculation; fresh weight of aerial part; details: dripped onto primary leaf 0.2 mg per plant, 200 g per hectare, 14 days from inoculation
Procedure: Field corn is sown to a pot filled with a soil at a sowing rate of 1,000,000 seeds per hectare. The field corn is incubated for 10 days in a greenhouse, and then mefentrifluconazole dilution liquid (prepared by diluting an aqueous suspension concentrate of mefentrifluconazole with water) is dripped onto the primary leaf of field corn so that the amount of mefentrifluconazole to be applied to each plant may be 0.2 mg. That is, the application rate of mefentrifluconazole is 200 g per hectare. On the next day of the application, a pathogen of grey leaf spot (Cercospora zeae-maydis) is inoculated to the foliage of field corn. The field corn is incubated in a greenhouse for 14 days from the inoculation, and then fresh weight of the aerial part of the field corn is measured. It is confirmed that the fresh weight is equivalent to that of the control where field corn is not treated with mefentrifluconazole and the pathogen is not inoculated (no-treatment-no-inoculation control) and is bigger than that of the control where field corn is not treated with mefentrifluconazole and the pathogen is inoculated (no-treatment-inoculation control). The same procedure of the example 3 is repeated except for replacing field corn with popcorn, sweet corn, or waxy corn. It is confirmed that the fresh weight of popcorn, sweet corn, or waxy corn is smaller than that of the corresponding no-treatment-no-inoculation control and is equivalent to that of the corresponding no-treatment-inoculation control.

[6] = popcorn, sweet corn, or waxy corn

Structure (SMILES): CC(O)(Cn1cncn1)c1ccc(Oc2ccc(Cl)cc2)cc1C(F)(F)F (stereo not drawn) [mefentrifluconazole]
- fresh weight of the aerial part compared with no-treatment-inoculation control (Cercospora zeae-maydis [1]; field corn): bigger
- fresh weight of the aerial part compared with no-treatment-no-inoculation control (Cercospora zeae-maydis [1]; field corn): equivalent
- fresh weight compared with no-treatment-inoculation control (Cercospora zeae-maydis [1]; [6]): equivalent
- fresh weight compared with no-treatment-no-inoculation control (Cercospora zeae-maydis [1]; [6]): smaller
- Plant length in treatment plot (A) (Cercospora zeae-maydis [2]; Field corn/DKC5632): 63 cm
- Treatment/control ratio (100 × A/B) (Cercospora zeae-maydis [2]; Field corn/DKC5632): 103
- Plant length in treatment plot (A) (Cercospora zeae-maydis [2]; Field corn/Koshu): 65 cm
- Treatment/control ratio (100 × A/B) (Cercospora zeae-maydis [2]; Field corn/Koshu): 108
- Plant length in treatment plot (A) (Cercospora zeae-maydis [2]; Field corn/MAS40F): 64 cm
- Treatment/control ratio (100 × A/B) (Cercospora zeae-maydis [2]; Field corn/MAS40F): 102
- Plant length in treatment plot (A) (Cercospora zeae-maydis [2]; Field corn/Pioneer 2088): 62 cm
- Treatment/control ratio (100 × A/B) (Cercospora zeae-maydis [2]; Field corn/Pioneer 2088): 103
- Plant length in treatment plot (A) (Cercospora zeae-maydis [2]; Popcorn/Maru-pop): 45 cm
- Treatment/control ratio (100 × A/B) (Cercospora zeae-maydis [2]; Popcorn/Maru-pop): 80
- Plant length in treatment plot (A) (Cercospora zeae-maydis [2]; Popcorn/Yuki-pop): 53 cm
- Treatment/control ratio (100 × A/B) (Cercospora zeae-maydis [2]; Popcorn/Yuki-pop): 84
- Plant length in treatment plot (A) (Cercospora zeae-maydis [2]; Sweet corn/Rancher 82): 31 cm
- Treatment/control ratio (100 × A/B) (Cercospora zeae-maydis [2]; Sweet corn/Rancher 82): 91
- Plant length in treatment plot (A) (Cercospora zeae-maydis [2]; Waxy corn/Ki-mochi): 29 cm
- Treatment/control ratio (100 × A/B) (Cercospora zeae-maydis [2]; Waxy corn/Ki-mochi): 67
- Plant length in treatment plot (A) (Cercospora zeae-maydis [2]; Waxy corn/Shiro-mochi): 43 cm
- Treatment/control ratio (100 × A/B) (Cercospora zeae-maydis [2]; Waxy corn/Shiro-mochi): 73
- protection from the damage by the pathogen (Cercospora zeae-maydis [2]; each field corn (four varieties), Table 3): successfully protected
- protection from the damage by the pathogen (Cercospora zeae-maydis [2]; popcorns, sweet corn and waxy corns, Table 4): not successfully protected
- fresh weight of the aerial part compared with no-treatment-inoculation control (Cercospora zeae-maydis [3]; field corn): bigger
- fresh weight of the aerial part compared with no-treatment-no-inoculation control (Cercospora zeae-maydis [3]; field corn): equivalent
- fresh weight compared with no-treatment-inoculation control (Cercospora zeae-maydis [3]; [6]): equivalent
- fresh weight compared with no-treatment-no-inoculation control (Cercospora zeae-maydis [3]; [6]): smaller
- Plant length in treatment plot (A) (Cercospora zeae-maydis [4]; Field corn/DKC5632): 58 cm
- Treatment/control ratio (100 × A/B) (Cercospora zeae-maydis [4]; Field corn/DKC5632): 95
- Plant length in treatment plot (A) (Cercospora zeae-maydis [4]; Field corn/Koshu): 63 cm
- Treatment/control ratio (100 × A/B) (Cercospora zeae-maydis [4]; Field corn/Koshu): 105
- Plant length in treatment plot (A) (Cercospora zeae-maydis [4]; Field corn/MAS40F): 61 cm
- Treatment/control ratio (100 × A/B) (Cercospora zeae-maydis [4]; Field corn/MAS40F): 97
- Plant length in treatment plot (A) (Cercospora zeae-maydis [4]; Popcorn/Yuki-pop): 45 cm
- Treatment/control ratio (100 × A/B) (Cercospora zeae-maydis [4]; Popcorn/Yuki-pop): 80
- Plant length in treatment plot (A) (Cercospora zeae-maydis [4]; Waxy corn/Ki-mochi): 30 cm
- Treatment/control ratio (100 × A/B) (Cercospora zeae-maydis [4]; Waxy corn/Ki-mochi): 70
- Plant length in treatment plot (A) (Cercospora zeae-maydis [4]; Waxy corn/Shiro-mochi): 51 cm
- Treatment/control ratio (100 × A/B) (Cercospora zeae-maydis [4]; Waxy corn/Shiro-mochi): 86
- protection of field corns compared with popcorn or waxy corns (Cercospora zeae-maydis [4]; Tables 1 and 2): protected much more effectively
- fresh weight of the aerial part compared with no-treatment-inoculation control (Cercospora zeae-maydis [5]; field corn): bigger
- fresh weight of the aerial part compared with no-treatment-no-inoculation control (Cercospora zeae-maydis [5]; field corn): equivalent
- fresh weight compared with no-treatment-inoculation control (Cercospora zeae-maydis [5]; [6]): equivalent
- fresh weight compared with no-treatment-no-inoculation control (Cercospora zeae-maydis [5]; [6]): smaller
